Values quoted from earlier work as cited in EP0398143B1, “Labeled chemotactic peptides to image focal sites of infection or inflammation” (THE GENERAL HOSPITAL CORPORATION, priority 1989, dated 1990).
Non-standard residues stand in square brackets, D forms with d. Residues, ends and D or L forms follow the SMILES beside them. *: point of attachment. Nle = CCCC[C@H](N)C(=O)O; For = O=C*

Target: T1, receptors on human neutrophils (Homo sapiens, UniProt P21462)
T1 construct: host or cells: human neutrophils (endogenous receptor)
T1 sequence (P21462 1-350): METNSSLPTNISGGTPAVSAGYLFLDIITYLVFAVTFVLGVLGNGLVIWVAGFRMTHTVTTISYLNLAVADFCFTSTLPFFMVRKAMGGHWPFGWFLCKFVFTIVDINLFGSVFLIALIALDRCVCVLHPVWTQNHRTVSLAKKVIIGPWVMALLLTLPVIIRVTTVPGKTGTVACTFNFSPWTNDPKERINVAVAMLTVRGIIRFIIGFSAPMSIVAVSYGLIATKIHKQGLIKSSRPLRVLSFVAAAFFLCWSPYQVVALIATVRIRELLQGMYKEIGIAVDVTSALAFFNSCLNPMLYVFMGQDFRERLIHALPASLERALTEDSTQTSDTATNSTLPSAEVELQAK
Settings: peptide labeled with ¹²⁵I at the Tyr residue

binding to receptors on human neutrophils: bind strongly
SMILES: CCCC[C@H](NC=O)C(=O)N[C@@H](CC(C)C)C(=O)N[C@@H](Cc1ccccc1)C(=O)N[C@@H](CCCC)C(=O)N[C@@H](Cc1ccc(O)cc1)C(=O)N[C@@H](CCCCN)C(=O)O [N-formyl-Nle-Leu-Phe-Nle-Tyr-Lys] (For-[Nle]LF[Nle]YK-OH)
